In ChEMBL document CHEMBL4699536, “Discovery of Natural Compounds for Cardiac Fibrosis by a Transcriptome-Based Functional Gene Module Reference Approach” (J Nat Prod, 2020):
Activity calls are given as the source filed them.

Key:
Format in all cases: functional, organism-based
Details in all cases: time 30.0 day
Rattus norvegicus [1] = experiment: Cardioprotective activity in Sprague-Dawley rat model of LAD coronary artery ligation-induced cardiac fibrosis assessed as increase in organized myocardial cells at 2.86 mg/kg, po administered via gavage for 30 days by H and E staining based optical microscopic method
Rattus norvegicus [2] = experiment: Cardioprotective activity in Sprague-Dawley rat model of LAD coronary artery ligation-induced cardiac fibrosis assessed as decrease in myocardial necrotic area at 2.86 mg/kg, po administered via gavage for 30 days
Rattus norvegicus [3] = experiment: Cardioprotective activity in Sprague-Dawley rat model of LAD coronary artery ligation-induced cardiac fibrosis assessed as decrease in heart weight ratio at 2.86 mg/kg, po administered via gavage for 30 days
Rattus norvegicus [4] = experiment: Cardioprotective activity in Sprague-Dawley rat model of LAD coronary artery ligation-induced cardiac fibrosis assessed as decrease in collagen volume fraction at 2.86 mg/kg, po administered via gavage for 30 days by Masson trichrome staining based microscopic method
Rattus norvegicus [5] = experiment: Cardioprotective activity in Sprague-Dawley rat model of LAD coronary artery ligation-induced cardiac fibrosis assessed as decrease in collagen in heart at 2.86 mg/kg, po administered via gavage for 30 days by Masson trichrome staining based microscopic method
Rattus norvegicus [6] = experiment: Cardioprotective activity in Sprague-Dawley rat model of LAD coronary artery ligation-induced cardiac fibrosis assessed as increase in ejection fraction at 2.86 mg/kg, po administered via gavage for 30 days by echocardiography
Rattus norvegicus [7] = experiment: Cardioprotective activity in Sprague-Dawley rat model of LAD coronary artery ligation-induced cardiac fibrosis assessed as reduction in infarct survival area of myocardial cells at 2.86 mg/kg, po administered via gavage for 30 days by H and E staining based optical microscopic method
Rattus norvegicus [8] = experiment: Cardioprotective activity in Sprague-Dawley rat model of LAD coronary artery ligation-induced cardiac fibrosis assessed as increase in left ventricular function by measuring reduction in LAD-induced anterior wall weakened at 2.86 mg/kg, po administered via gavage for 30 days by echocardiography
Rattus norvegicus [9] = experiment: Cardioprotective activity in Sprague-Dawley rat model of LAD coronary artery ligation-induced cardiac fibrosis assessed as increase in fractional shortening at 2.86 mg/kg, po administered via gavage for 30 days by echocardiography
Rattus norvegicus [10] = experiment: Cardioprotective activity in Sprague-Dawley rat model of LAD coronary artery ligation-induced cardiac fibrosis assessed as increase in fractional shortening at 10 mg/kg, po administered via gavage for 30 days by echocardiography
Rattus norvegicus [11] = experiment: Cardioprotective activity in Sprague-Dawley rat model of LAD coronary artery ligation-induced cardiac fibrosis assessed as increase in organized myocardial cells at 10 mg/kg, po administered via gavage for 30 days by H and E staining based optical microscopic method
Rattus norvegicus [12] = experiment: Cardioprotective activity in Sprague-Dawley rat model of LAD coronary artery ligation-induced cardiac fibrosis assessed as decrease in collagen in heart at 10 mg/kg, po administered via gavage for 30 days by Masson trichrome staining based microscopic method
Rattus norvegicus [13] = experiment: Cardioprotective activity in Sprague-Dawley rat model of LAD coronary artery ligation-induced cardiac fibrosis assessed as increase in ejection fraction at 10 mg/kg, po administered via gavage for 30 days by echocardiography
Rattus norvegicus [14] = experiment: Cardioprotective activity in Sprague-Dawley rat model of LAD coronary artery ligation-induced cardiac fibrosis assessed as increase in left ventricular function by measuring reduction in LAD-induced anterior wall weakened at 10 mg/kg, po administered via gavage for 30 days by echocardiography
Rattus norvegicus [15] = experiment: Cardioprotective activity in Sprague-Dawley rat model of LAD coronary artery ligation-induced cardiac fibrosis assessed as decrease in Lox mRNA expression at 10 mg/kg, po administered via gavage for 30 days by RT2 Profiler PCR Array
Rattus norvegicus [16] = experiment: Cardioprotective activity in Sprague-Dawley rat model of LAD coronary artery ligation-induced cardiac fibrosis assessed as decrease in heart weight ratio at 10 mg/kg, po administered via gavage for 30 days
Rattus norvegicus [17] = experiment: Cardioprotective activity in Sprague-Dawley rat model of LAD coronary artery ligation-induced cardiac fibrosis assessed as reduction in infarct survival area of myocardial cells at 10 mg/kg, po administered via gavage for 30 days by H and E staining based optical microscopic method
Rattus norvegicus [18] = experiment: Cardioprotective activity in Sprague-Dawley rat model of LAD coronary artery ligation-induced cardiac fibrosis assessed as decrease in collagen volume fraction at 10 mg/kg, po administered via gavage for 30 days by Masson trichrome staining based microscopic method
Rattus norvegicus [19] = experiment: Cardioprotective activity in Sprague-Dawley rat model of LAD coronary artery ligation-induced cardiac fibrosis assessed as decrease in myocardial necrotic area at 10 mg/kg, po administered via gavage for 30 days
Rattus norvegicus [20] = experiment: Cardioprotective activity in Sprague-Dawley rat model of LAD coronary artery ligation-induced cardiac fibrosis assessed as decrease in Col3a1 mRNA expression at 10 mg/kg, po administered via gavage for 30 days by RT2 Profiler PCR Array
Rattus norvegicus [21] = experiment: Cardioprotective activity in Sprague-Dawley rat model of LAD coronary artery ligation-induced cardiac fibrosis assessed as decrease in CTGF mRNA expression at 10 mg/kg, po administered via gavage for 30 days by RT2 Profiler PCR Array

Measured: Activity

CCOC(=O)[C@H](CCc1ccccc1)N[C@@H](C)C(=O)N1CCC[C@H]1C(=O)O
active: Rattus norvegicus [1] | Rattus norvegicus [2] | Rattus norvegicus [3] | Rattus norvegicus [4] | Rattus norvegicus [5] | Rattus norvegicus [6] | Rattus norvegicus [7] | Rattus norvegicus [8] | Rattus norvegicus [9]

COc1cc2c(c(OC)c1OC)-c1c(cc3c(c1OC)OCO3)C[C@H](C)[C@](C)(O)[C@H]2OC(=O)c1ccccc1
not listed: Rattus norvegicus [1] | Rattus norvegicus [2] | Rattus norvegicus [3] | Rattus norvegicus [4] | Rattus norvegicus [5] | Rattus norvegicus [6] | Rattus norvegicus [7] | Rattus norvegicus [8] | Rattus norvegicus [9]
active: all other assays above
